Assay results: PubChem BioAssay (NCI)
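Protocol summary: plate cells (96-well), add compound at 5 concentrations, incubate 48 h, interpolate endpoints linearly. Abbreviation: GI50, concentration required for 50% inhibition of growth. TGI: total growth inhibition.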

Experiments:
Assay in all cases: NCI anticancer screen, dose series, 48 h
786-0 renal = system: 786-0 renal
A498 renal = system: A498 renal
A549 NSCLC = system: A549 NSCLC
ACHN renal = system: ACHN renal
BT-549 breast = system: BT-549 breast
CAKI-1 renal = system: CAKI-1 renal
COLO 205 colon = system: COLO 205 colon
DU-145 prostate = system: DU-145 prostate
EKVX NSCLC = system: EKVX NSCLC
HCC-2998 colon = system: HCC-2998 colon
HCT-116 colon = system: HCT-116 colon
HCT-15 colon = system: HCT-15 colon
HOP-62 NSCLC = system: HOP-62 NSCLC
HS 578T breast = system: HS 578T breast
HT29 colon = system: HT29 colon
IGROV1 ovarian = system: IGROV1 ovarian
KM12 colon = system: KM12 colon
LOX IMVI melanoma = system: LOX IMVI melanoma
M14 melanoma = system: M14 melanoma
MALME-3M melanoma = system: MALME-3M melanoma
MCF7 breast = system: MCF7 breast
MDA-MB-231 breast = system: MDA-MB-231 breast
MDA-MB-435 = system: MDA-MB-435
NCI-H226 lung = system: NCI-H226 lung
NCI-H23 lung = system: NCI-H23 lung
NCI-H460 lung = system: NCI-H460 lung
NCI-H522 lung = system: NCI-H522 lung
NCI/ADR-RES ovarian = system: NCI/ADR-RES ovarian
OVCAR-3 ovarian = system: OVCAR-3 ovarian
OVCAR-4 ovarian = system: OVCAR-4 ovarian
OVCAR-5 ovarian = system: OVCAR-5 ovarian
OVCAR-8 ovarian = system: OVCAR-8 ovarian
PC-3 prostate = system: PC-3 prostate
RPMI-8226 leukemia = system: RPMI-8226 leukemia
RXF 393 renal = system: RXF 393 renal
SF-268 CNS = system: SF-268 CNS
SF-295 CNS = system: SF-295 CNS
SF-539 CNS = system: SF-539 CNS
SK-MEL-2 melanoma = system: SK-MEL-2 melanoma
SK-MEL-28 melanoma = system: SK-MEL-28 melanoma
SK-MEL-5 melanoma = system: SK-MEL-5 melanoma
SK-OV-3 ovarian = system: SK-OV-3 ovarian
SN12C renal = system: SN12C renal
SNB-19 CNS = system: SNB-19 CNS
SNB-75 CNS = system: SNB-75 CNS
SW-620 colon = system: SW-620 colon
T-47D breast = system: T-47D breast
TK-10 renal = system: TK-10 renal
U251 CNS = system: U251 CNS
UACC-257 melanoma = system: UACC-257 melanoma
UACC-62 melanoma = system: UACC-62 melanoma
UO-31 renal = system: UO-31 renal
HL-60(TB) leukemia = system: HL-60(TB) leukemia
HOP-92 NSCLC = system: HOP-92 NSCLC
K-562 leukemia = system: K-562 leukemia
MOLT-4 leukemia = system: MOLT-4 leukemia

O=c1c2ccccc2c(Br)c(Br)c2ccccc12
GI50 (786-0 renal): 14.7 µM
TGI (786-0 renal): 29.8 µM
GI50 (A498 renal): 5.37 µM
TGI (A498 renal): 23 µM
GI50 (A549 NSCLC): 20.6 µM
TGI (A549 NSCLC): 73 µM
GI50 (ACHN renal): 7.46 µM
TGI (ACHN renal): 21.9 µM
GI50 (BT-549 breast): 19 µM
TGI (BT-549 breast): 34.4 µM
GI50 (CAKI-1 renal): 1.78 µM
TGI (CAKI-1 renal): 4.39 µM
GI50 (COLO 205 colon): 8.61 µM
TGI (COLO 205 colon): 23.7 µM
GI50 (DU-145 prostate): 4.02 µM
TGI (DU-145 prostate): 15.8 µM
GI50 (EKVX NSCLC): 14.2 µM
TGI (EKVX NSCLC): 64.3 µM
GI50 (HCC-2998 colon): 17.3 µM
TGI (HCC-2998 colon): 35.8 µM
GI50 (HCT-116 colon): 4.92 µM
TGI (HCT-116 colon): 29.3 µM
GI50 (HCT-15 colon): 10.7 µM
TGI (HCT-15 colon): > 100 µM
GI50 (HOP-62 NSCLC): 21 µM
TGI (HOP-62 NSCLC): 41.9 µM
GI50 (HS 578T breast): 11.8 µM
TGI (HS 578T breast): 42.1 µM
GI50 (HT29 colon): 3.04 µM
TGI (HT29 colon): 8.13 µM
GI50 (IGROV1 ovarian): 2.37 µM
TGI (IGROV1 ovarian): 5.37 µM
GI50 (KM12 colon): 12.5 µM
TGI (KM12 colon): 29.6 µM
GI50 (LOX IMVI melanoma): 2.22 µM
TGI (LOX IMVI melanoma): 5.77 µM
GI50 (M14 melanoma): 4.8 µM
TGI (M14 melanoma): 16.3 µM
GI50 (MALME-3M melanoma): 2.66 µM
TGI (MALME-3M melanoma): 7.65 µM
GI50 (MCF7 breast): 5.6 µM
TGI (MCF7 breast): 46.1 µM
GI50 (MDA-MB-231 breast): 19.9 µM
TGI (MDA-MB-231 breast): 50.7 µM
GI50 (MDA-MB-435): 4.56 µM
TGI (MDA-MB-435): 21 µM
GI50 (NCI-H226 lung): 24.1 µM
TGI (NCI-H226 lung): 79.5 µM
GI50 (NCI-H23 lung): 12.7 µM
TGI (NCI-H23 lung): 38.7 µM
GI50 (NCI-H460 lung): 14.5 µM
TGI (NCI-H460 lung): 34.5 µM
GI50 (NCI-H522 lung): 1.76 µM
TGI (NCI-H522 lung): 3.47 µM
GI50 (NCI/ADR-RES ovarian): 16.5 µM
TGI (NCI/ADR-RES ovarian): 40.6 µM
GI50 (OVCAR-3 ovarian): 3.37 µM
TGI (OVCAR-3 ovarian): 12 µM
GI50 (OVCAR-4 ovarian): 9.24 µM
TGI (OVCAR-4 ovarian): 80.9 µM
GI50 (OVCAR-5 ovarian): 30.2 µM
TGI (OVCAR-5 ovarian): > 100 µM
GI50 (OVCAR-8 ovarian): 13.9 µM
TGI (OVCAR-8 ovarian): 34.2 µM
GI50 (PC-3 prostate): 10.1 µM
TGI (PC-3 prostate): 30.2 µM
GI50 (RPMI-8226 leukemia): 2.51 µM
TGI (RPMI-8226 leukemia): 5.84 µM
GI50 (RXF 393 renal): 3.32 µM
TGI (RXF 393 renal): 12.7 µM
GI50 (SF-268 CNS): 8.89 µM
TGI (SF-268 CNS): 25 µM
GI50 (SF-295 CNS): 17.1 µM
TGI (SF-295 CNS): 36 µM
GI50 (SF-539 CNS): 13.3 µM
TGI (SF-539 CNS): 37.2 µM
GI50 (SK-MEL-2 melanoma): 13.3 µM
TGI (SK-MEL-2 melanoma): 32.5 µM
GI50 (SK-MEL-28 melanoma): 24.9 µM
TGI (SK-MEL-28 melanoma): > 100 µM
GI50 (SK-MEL-5 melanoma): 13.6 µM
TGI (SK-MEL-5 melanoma): 31.6 µM
GI50 (SK-OV-3 ovarian): 38.3 µM
TGI (SK-OV-3 ovarian): > 100 µM
GI50 (SN12C renal): 15.8 µM
TGI (SN12C renal): 32.8 µM
GI50 (SNB-19 CNS): 45.4 µM
TGI (SNB-19 CNS): > 100 µM
GI50 (SNB-75 CNS): 19.2 µM
TGI (SNB-75 CNS): 56 µM
GI50 (SW-620 colon): 1.09 µM
TGI (SW-620 colon): 3.13 µM
GI50 (T-47D breast): 4.43 µM
TGI (T-47D breast): 32.3 µM
GI50 (TK-10 renal): 3.91 µM
TGI (TK-10 renal): 18 µM
GI50 (U251 CNS): 12.6 µM
TGI (U251 CNS): 29 µM
GI50 (UACC-257 melanoma): 7.48 µM
TGI (UACC-257 melanoma): 43.6 µM
GI50 (UACC-62 melanoma): 18.3 µM
TGI (UACC-62 melanoma): 59.5 µM
GI50 (UO-31 renal): 1.9 µM
TGI (UO-31 renal): 3.44 µM

CC(C)CC[C@H](O)[C@@H](C)[C@H]1[C@@H](OC2OC(C)C(O)C(O)C2O)C[C@H]2[C@@H]3CC=C4C[C@@H](O)CC[C@]4(C)[C@H]3[C@@H](O)C[C@]12C (stereo partly specified)
TGI (786-0 renal): > 100 µM
TGI (A498 renal): > 34.9 µM
TGI (A549 NSCLC): > 100 µM
TGI (ACHN renal): > 100 µM
TGI (BT-549 breast): > 100 µM
TGI (CAKI-1 renal): > 64 µM
TGI (COLO 205 colon): 7.17 µM
TGI (DU-145 prostate): > 100 µM
TGI (EKVX NSCLC): > 100 µM
TGI (HCC-2998 colon): > 100 µM
TGI (HCT-116 colon): > 100 µM
TGI (HCT-15 colon): > 100 µM
TGI (HL-60(TB) leukemia): > 100 µM
TGI (HOP-62 NSCLC): > 68.7 µM
TGI (HOP-92 NSCLC): 6.7 µM
TGI (HS 578T breast): 2.36 µM
TGI (HT29 colon): > 100 µM
TGI (IGROV1 ovarian): 40.4 µM
TGI (K-562 leukemia): 0.422 µM
TGI (LOX IMVI melanoma): > 100 µM
TGI (M14 melanoma): > 23.4 µM
TGI (MALME-3M melanoma): > 68.9 µM
TGI (MDA-MB-231 breast): > 100 µM
TGI (MDA-MB-435): > 100 µM
TGI (MOLT-4 leukemia): 0.508 µM
TGI (NCI-H23 lung): > 100 µM
TGI (NCI-H460 lung): > 100 µM
TGI (NCI-H522 lung): > 100 µM
TGI (NCI/ADR-RES ovarian): > 100 µM
TGI (OVCAR-3 ovarian): > 100 µM
TGI (OVCAR-5 ovarian): > 100 µM
TGI (OVCAR-8 ovarian): > 100 µM
TGI (PC-3 prostate): > 100 µM
TGI (RPMI-8226 leukemia): 0.229 µM
TGI (RXF 393 renal): > 100 µM
TGI (SF-268 CNS): > 100 µM
TGI (SF-295 CNS): 0.222 µM
TGI (SF-539 CNS): 0.578 µM
TGI (SK-MEL-2 melanoma): > 100 µM
TGI (SK-MEL-28 melanoma): 6.47 µM
TGI (SK-MEL-5 melanoma): > 58 µM
TGI (SK-OV-3 ovarian): > 100 µM
TGI (SN12C renal): > 100 µM
TGI (SNB-19 CNS): > 100 µM
TGI (SNB-75 CNS): 59.1 µM
TGI (SW-620 colon): > 19.9 µM
TGI (T-47D breast): > 100 µM
TGI (TK-10 renal): > 100 µM
TGI (U251 CNS): > 100 µM
TGI (UACC-257 melanoma): 2.91 µM
TGI (UACC-62 melanoma): 3.21 µM
TGI (UO-31 renal): 21.7 µM
